# “Also recorded” adds a separate entry of the source.
# T1: S100P binding with RAGE (Homo sapiens, UniProt P25815)
# T1 construct: full-length human S100P cDNA (NM_005980) was cloned into the pTrcHis2 vector; His; made in house; host or cells: bacteria (S100P)
# T1 sequence (P25815 1-95): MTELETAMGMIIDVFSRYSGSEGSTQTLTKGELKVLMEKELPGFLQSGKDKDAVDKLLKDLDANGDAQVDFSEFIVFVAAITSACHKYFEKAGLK
# Legend:
# Panc-1 cells [1] = assay: Panc-1 cell proliferation (MTS); assay type: cell-based; conditions: Panc-1
# Description: Panc-1 pancreatic adenocarcinoma cells (1.0×10^3 cells/well) were cultured in the presence or absence of S100P (100 nM) and with or without cromolyn (100 μM), and cell proliferation was analyzed at 24, 48, and 72 hours. Means and 95% confidence intervals of three independent experiments performed in triplicate are shown. *, P=0.001, S100P alone versus S100P+cromolyn.
# Panc-1 cells were plated at 1.0×10^3 cells/well and treated with platelet-derived growth factor (10 ng/mL) with or without cromolyn (100 μM), and cell proliferation was analyzed after 48 hours. Means and 95% confidence intervals of three independent experiments performed in triplicate are shown. *, P=0.004 PDGF and P=0.022 cromolyn+PDGF versus control.
# Growth of Panc-1 and BxPC3 pancreatic adenocarcinoma cells was analyzed using MTS reagent (Promega, Madison, Wis.) according to the manufacturer's directions. Purified S100P (100 nM final concentration) with or without cromolyn (100 μM final concentration) was added to Panc-1 cells. Only cromolyn (0-100 μM) was added to BxPC-3 cells, which express endogenous S100P. For both cell models, 1.0×10^3 cells/well were plated in 96-well culture dishes. Cells were treated with S100P, PDGF, or cromolyn, or a combination, followed immediately by treatment with either S100P or PDGF. MTS (20 μL per well) was added to cells at various times, and the mixture was incubated for 1 hour at 37° C. Samples were then read at 490 nm (as O.D. units) on a uQuant-Microplate Spectrophotometer (Bio-Tek Services Inc., Richmond, Va.). The assay was performed three times in triplicate.
# pancreatic cancer cells = assay: Apoptosis of pancreatic cancer cells with cromolyn analogs and cytotoxic drugs; assay type: cell-based
# Description: (§1) Various cromolyn-based analogs were developed. The effects of the analogs on binding of S100P with RAGE were evaluated for the analogs using a sandwich ELISA. The effectiveness of the analogs to block cancer cell proliferatin and increase apoptosis in vitro were analyzed with and without cisplatin, 5-flurouracil and gemcitabine by MTS and FACS analysis. We also examined the ability of the analogs to inhibit S100P activation of NFkB signaling in cancer cells in vitro and in vivo. Finally, the effects of the novel analogs on tumor growth in vivo was evaluated. One analog, C5OH is shown below:
# In this in vitro study, pancreatic cancer cells were treated with gemcitabine alone or in the presence of cromolyn analogs. The cromolyn analogs themselves have very little effect on the rates of cellular apoptosis, supporting their absence of general toxicity. However, all cromolyn analogs increased the killing of pancreatic cancer cells by gemcitabine.
# MPanc96 tumors = assay: MPanc96 pancreatic tumor growth and survival in mice (analogs); assay type: in vivo
# Description: as §1
# Animals were implanted with MPanc96 cells, a gemcitabine resistant model of pancreatic cancer, and then treated with gemcitabine, C5OH, or the combination. […] Noteworthy, the addition of the hydroxyl group to the carbon chain in C5 allows easy modifications of this molecule. The hydroxyl can be substituted with fluoride that can be labeled for in vivo PET imaging. This hydroxyl can also be used to develop a pro-drug form of C5 by attaching other components with an ester bond.
# NFkB activity = assay: S100P induced NFkB activity in cancer cells (analogs); assay type: cell-based
# Description: as §1, with “evaluated.” for “evaluated. One analog, C5OH is shown below:”
# S100P binding with RAGE = target: T1, S100P binding with RAGE; assay: ELISA of S100P binding to RAGE (sRAGE coated plate); conditions: analogs at 10-fold lower concentration than cromolyn
# Description: After removing un-bound S100P by washing with detergent, the bound S100P and RAGE complex was quantified by adding HRP labeled antibody against S100P. *, P=0.04 C5 1 μM versus cromolyn 5 μM. Two-tailed two-sample (unpaired) Student's t-tests were used to determine P values.
# The plate was washed and the amount of bound S100P was quantitated using anti-S100P antibody.
# The binding of S100P to RAGE was determined using an ELISA assay. sRAGE was attached to the dish and recombinant S100P (50 ng) was added with or without the indicated concentrations of cromolyn analogs. The plate was washed and the amount of bound S100P was quantitated using anti-S100P antibody.
# NFκB promoter activity = assay: NFκB luciferase reporter assay in Panc-1 cells; assay type: cell-based; conditions: 5 hours
# Description: FIGS. 3A, 3B, and 3C show the effect of cromolyn on S100P stimulated NFκB promoter activity in pancreatic cancer cells in vitro and in vivo. Panc-1 and BxPC-3 pancreatic cancer cell lines stably expressing an NFκB luciferase reporter were examined for the effects of S100P and cromolyn. […] Means and 95% confidence intervals are shown for three independent experiments performed in triplicate. *, P=0.022, †, P<0.001, and P<0.001 versus control; #, P=0.005 versus 100 nM S100P alone. […] Means and 95% confidence intervals are shown for three independent experiments performed in triplicate. *, P=0.003, †, P<0.001 versus control. […] After 1 week, tumor growth was assessed and NFκB activity was analyzed using an IVIS system (Xenogen Corp., Alameda, Calif.) after injecting mice with D-luciferin (150 mg per kg body weight) (0 time point). The mice were treated with cromolyn (5 mg per kg body weight by intraperitoneal injection), and NFκB luciferase activity was analyzed again at 24 and 48 hours. *, P=0.005 versus control. Means and 95% confidence intervals are shown for two independent experiments (n=4 mice per group). Two-tailed two-sample (unpaired for in vitro and paired for in vivo studies) Student's t-tests were used to determine P values.
# To study pancreatic cancer cell NFκB activity, a lentivirus NFκB luciferase reporter gene construct was developed. The NFκB luciferase reporter gene was excised and isolated from the pNF-κB-Luc Vector (Clonetec, Mountain View, Calif.) and cloned into the lentiviral vector FG9 (Gift from Dr. Xiao-Feng Qin, Dept. of Immunology, M.D. Anderson Cancer Center replacing the CMV/LTR and UBiC promoters, to form Lenti-NFκB-Luc. Lentiviral NFκB vector were co-transfected with packaging constructs pRSVREV, pMDLg/pRRE, and the VSV-G expression plasmid pHCMVG, and lentivirus was produced in 293T cells by the calcium transfection method, as previously described in Qin, et al., Inhibiting HIV-1 infection in human T cells by lentiviral-mediated delivery of small interfering RNA against CCR5; Proc. Natl. Acad. Sci. U.S.A. 2003 Jan. 7; 100(1):183-8. […] Functional validation of NFκB reporter activity was conducted in vitro using TNF-α (20 ng/mL, Sigma, St. Louis, Mo.) as a positive control.
# BxPC-3 and Panc-1 cells stably expressing a Lenti-NFkB-luc reporter construct were treated with S100P, cromolyn, or the combination for 5 hours. D-luciferin (150 μg/mL) was added to the cells, and luciferase activity was measured using an IVIS bioluminescence system (Xenogen Co. Alameda, Calif.). Each experiment was conducted three times in triplicate.
# Panc-1 cells [2] = assay: Panc-1 matrigel invasion assay; assay type: cell-based; conditions: Panc-1; S100P 100 nM alone, 24 hours
# Description: FIGS. 2A-2D show the effect of cromolyn on pancreatic cancer cell invasion. Panc-1 and BxPC-3 cells were plated in Bio-coat matrigel and control chambers and cultured in serum-free culture media. After 24 hours non-invaded cells in the upper chamber were removed, and cells that invaded onto the lower surface of the membrane were counted from five adjacent fields. […] Data are expressed as the percent invasion through the matrigel matrix and membrane relative to migration through the control membrane. Means and 95% confidence intervals from three independent experiments performed in triplicate are shown. Two-tailed two-sample (unpaired) Student's t-tests were used to determine P values.
# Panc-1 and BxPC-3 cells were seeded in BIOCOAT matrigel invasion chambers and in control chambers without matrigel (Becton-Dickinson, Bedford, Mass.) according to the manufacturer's protocol. Panc-1 cells were seeded with S100P (100 nM) with or without cromolyn (100 μM), and BxPC-3 cells were seeded with or without cromolyn (1-100 μM). Briefly, 2.0×10^5 cells in 300 μL top solution (serum-free media) were added to each chamber and allowed to invade matrigel for 24 hours at 37° C. in a 5% CO2 atmosphere. The non-invading cells on the upper surface of membrane were removed from the chambers with a cotton swab, and the invading cells on the lower surface of the membrane were fixed and stained using a Diff-Quick stain kit (Becton Dickinson, Bedford, Mass.). After two washes with water, the chambers were allowed to air dry. The numbers of invading cells in five adjacent microscope fields per membrane were counted at 20× magnification to obtain the average number of cells per field. Data are expressed as the percent invasion through the matrigel matrix and membrane relative to the migration through the control membrane. The assays were performed three times.
# [3] = MPanc96, gemcitabine resistant model, to a greater extent than gemcitabine
molecule,measurement,setting,value
PDGF,"cell proliferation, difference versus control","Panc-1 cells [1]; PDGF 10 ng/mL, 48 hours",0.2 MTS units
same,"cell proliferation, mean","Panc-1 cells [1]; PDGF 10 ng/mL, 48 hours, control mean 0.5",0.7 MTS units
O=C([O-])c1cc(=O)c2c(OCCC(O)CCOc3cccc4oc(C(=O)[O-])cc(=O)c34)cccc2o1.[Na+].[Na+] [C5OH],"cancer cell apoptosis in response to various cytoxic treatments, relative to cromolyn",pancreatic cancer cells,at lesser concentrations and to a greater extent than did cromolyn
same,killing of pancreatic cancer cells by gemcitabine,"pancreatic cancer cells; with gemcitabine, C5 and C5OH at 10-fold lower concentration than cromolyn",worked equally well
same,survival of mice with pancreatic tumors,MPanc96 tumors; [3],prolongs survival
same,tumor growth,MPanc96 tumors; [3],reduces tumor growth
same,effects relative to gemcitabine,MPanc96 tumors; MPanc96 model,superior to those of gemcitabine
same,"inhibition of tumor growth and survival in vivo, relative to cromolyn","MPanc96 tumors; mouse, in vivo",superior to cromolyn
same,inhibition of S100P induced NFkB activity relative to cromolyn,NFkB activity,more potently and effectively than did cromolyn
same,potency in blocking S100P binding to RAGE relative to cromolyn or C5,S100P binding with RAGE,nearly equally potent and more efficient than cromolyn; also recorded: at least as effective as the C5-analog
"S100P: purified His-tagged full-length human S100P protein, 95-amino acid member of the S100 family (protein, UniProt P25815 1-95, looked up, His tag, purified His-tagged full-length human S100P protein, 95-amino acid member of the S100 family) Protein S100-P: MTELETAMGMIIDVFSRYSGSEGSTQTLTKGELKVLMEKELPGFLQSGKDKDAVDKLLKDLDANGDAQVDFSEFIVFVAAITSACHKYFEKAGLK","cell proliferation, mean",Panc-1 cells [1]; S100P 100 nM alone,0.93 MTS units
same,"NFκB promoter activity, difference versus 0 nM",NFκB promoter activity; S100P 1 nM,3544 photons/sec
same,"NFκB promoter activity, mean","NFκB promoter activity; S100P 1 nM, 0 nM mean 3358",6902 photons/sec
same,"NFκB promoter activity, difference versus 0 nM",NFκB promoter activity; S100P 10 nM,5400 photons/sec
same,"NFκB promoter activity, mean",NFκB promoter activity; S100P 10 nM,8758 photons/sec
same,"NFκB promoter activity, difference versus 0 nM",NFκB promoter activity; S100P 100 nM,11100 photons/sec
same,"NFκB promoter activity, mean",NFκB promoter activity; S100P 100 nM,14460 photons/sec
same,"cells invaded, mean",Panc-1 cells [2],58.0%

# — patent US20110195924A1, “Methods of Inhibiting the Interaction Between S100P and the Receptor for Advanced Glycation End-Products” (priority 2008, published 2011)
